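Assay format: 96-well plates, 48-hour exposure. GI50 is the concentration that inhibits growth by half. TGI: concentration producing complete growth inhibition.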
Key:
Experiment in all cases: NCI anticancer screen, dose series, 48 h
786-0 renal = system: 786-0 renal
A498 renal = system: A498 renal
A549 NSCLC = system: A549 NSCLC
ACHN renal = system: ACHN renal
BT-549 breast = system: BT-549 breast
CAKI-1 renal = system: CAKI-1 renal
CCRF-CEM leukemia = system: CCRF-CEM leukemia
COLO 205 colon = system: COLO 205 colon
DU-145 prostate = system: DU-145 prostate
EKVX NSCLC = system: EKVX NSCLC
HCC-2998 colon = system: HCC-2998 colon
HCT-116 colon = system: HCT-116 colon
HCT-15 colon = system: HCT-15 colon
HL-60(TB) leukemia = system: HL-60(TB) leukemia
HOP-62 NSCLC = system: HOP-62 NSCLC
HOP-92 NSCLC = system: HOP-92 NSCLC
HS 578T breast = system: HS 578T breast
HT29 colon = system: HT29 colon
IGROV1 ovarian = system: IGROV1 ovarian
K-562 leukemia = system: K-562 leukemia
KM12 colon = system: KM12 colon
LOX IMVI melanoma = system: LOX IMVI melanoma
M14 melanoma = system: M14 melanoma
MALME-3M melanoma = system: MALME-3M melanoma
MCF7 breast = system: MCF7 breast
MDA-MB-231 breast = system: MDA-MB-231 breast
MDA-MB-435 = system: MDA-MB-435
MOLT-4 leukemia = system: MOLT-4 leukemia
NCI-H226 lung = system: NCI-H226 lung
NCI-H460 lung = system: NCI-H460 lung
NCI-H522 lung = system: NCI-H522 lung
NCI/ADR-RES ovarian = system: NCI/ADR-RES ovarian
OVCAR-3 ovarian = system: OVCAR-3 ovarian
OVCAR-4 ovarian = system: OVCAR-4 ovarian
OVCAR-5 ovarian = system: OVCAR-5 ovarian
OVCAR-8 ovarian = system: OVCAR-8 ovarian
PC-3 prostate = system: PC-3 prostate
RPMI-8226 leukemia = system: RPMI-8226 leukemia
RXF 393 renal = system: RXF 393 renal
SF-268 CNS = system: SF-268 CNS
SF-295 CNS = system: SF-295 CNS
SF-539 CNS = system: SF-539 CNS
SK-MEL-2 melanoma = system: SK-MEL-2 melanoma
SK-MEL-28 melanoma = system: SK-MEL-28 melanoma
SK-MEL-5 melanoma = system: SK-MEL-5 melanoma
SK-OV-3 ovarian = system: SK-OV-3 ovarian
SN12C renal = system: SN12C renal
SNB-19 CNS = system: SNB-19 CNS
SNB-75 CNS = system: SNB-75 CNS
SR leukemia = system: SR leukemia
SW-620 colon = system: SW-620 colon
T-47D breast = system: T-47D breast
TK-10 renal = system: TK-10 renal
U251 CNS = system: U251 CNS
UACC-257 melanoma = system: UACC-257 melanoma
UACC-62 melanoma = system: UACC-62 melanoma
UO-31 renal = system: UO-31 renal

CN1CCN(Cc2ccc(NC(=O)c3cncc(C#Cc4cnc5ccc(NCCCO)nn45)c3)cc2C(F)(F)F)CC1
GI50 (786-0 renal): 0.299 µM
TGI (786-0 renal): 0.969 µM
GI50 (A498 renal): 0.314 µM
TGI (A498 renal): 1.04 µM
GI50 (A549 NSCLC): 0.202 µM
TGI (A549 NSCLC): 1.11 µM
GI50 (ACHN renal): 0.483 µM
TGI (ACHN renal): 1.49 µM
GI50 (BT-549 breast): 0.343 µM
TGI (BT-549 breast): 0.864 µM
GI50 (CAKI-1 renal): 0.177 µM
TGI (CAKI-1 renal): 1.22 µM
GI50 (CCRF-CEM leukemia): 0.0248 µM
TGI (CCRF-CEM leukemia): 1.81 µM
GI50 (COLO 205 colon): 0.0775 µM
TGI (COLO 205 colon): 0.188 µM
GI50 (DU-145 prostate): 0.17 µM
TGI (DU-145 prostate): 1.06 µM
GI50 (EKVX NSCLC): 0.148 µM
TGI (EKVX NSCLC): 0.924 µM
GI50 (HCC-2998 colon): 0.222 µM
TGI (HCC-2998 colon): 1.41 µM
GI50 (HCT-116 colon): 0.0405 µM
TGI (HCT-116 colon): 0.221 µM
GI50 (HCT-15 colon): 0.851 µM
TGI (HCT-15 colon): 2.99 µM
GI50 (HL-60(TB) leukemia): 0.0733 µM
TGI (HL-60(TB) leukemia): 0.462 µM
GI50 (HOP-62 NSCLC): 0.15 µM
TGI (HOP-62 NSCLC): 0.999 µM
GI50 (HOP-92 NSCLC): 0.0211 µM
TGI (HOP-92 NSCLC): 0.124 µM
GI50 (HS 578T breast): 0.0855 µM
TGI (HS 578T breast): 0.37 µM
GI50 (HT29 colon): 0.108 µM
TGI (HT29 colon): 0.439 µM
GI50 (IGROV1 ovarian): 0.104 µM
TGI (IGROV1 ovarian): 0.399 µM
GI50 (K-562 leukemia): 0.005 µM
TGI (K-562 leukemia): 1.84 µM
GI50 (KM12 colon): 0.0112 µM
TGI (KM12 colon): 0.876 µM
GI50 (LOX IMVI melanoma): 0.0599 µM
TGI (LOX IMVI melanoma): 0.27 µM
GI50 (M14 melanoma): 0.0963 µM
TGI (M14 melanoma): 0.28 µM
GI50 (MALME-3M melanoma): 0.0975 µM
TGI (MALME-3M melanoma): 0.438 µM
GI50 (MCF7 breast): 0.0437 µM
TGI (MCF7 breast): 0.404 µM
GI50 (MDA-MB-231 breast): 0.0415 µM
TGI (MDA-MB-231 breast): 0.303 µM
GI50 (MDA-MB-435): 0.0711 µM
TGI (MDA-MB-435): 0.608 µM
GI50 (MOLT-4 leukemia): 0.0435 µM
TGI (MOLT-4 leukemia): 1.62 µM
GI50 (NCI-H226 lung): 0.062 µM
TGI (NCI-H226 lung): 0.311 µM
GI50 (NCI-H460 lung): 0.171 µM
TGI (NCI-H460 lung): 0.61 µM
GI50 (NCI-H522 lung): 0.0685 µM
TGI (NCI-H522 lung): 0.247 µM
GI50 (NCI/ADR-RES ovarian): 7.22 µM
TGI (NCI/ADR-RES ovarian): 18.2 µM
GI50 (OVCAR-3 ovarian): 0.137 µM
TGI (OVCAR-3 ovarian): 0.795 µM
GI50 (OVCAR-4 ovarian): 0.166 µM
TGI (OVCAR-4 ovarian): 1.33 µM
GI50 (OVCAR-5 ovarian): 0.183 µM
TGI (OVCAR-5 ovarian): 1.99 µM
GI50 (OVCAR-8 ovarian): 0.204 µM
TGI (OVCAR-8 ovarian): 1.03 µM
GI50 (PC-3 prostate): 0.243 µM
TGI (PC-3 prostate): 2.82 µM
GI50 (RPMI-8226 leukemia): 0.206 µM
TGI (RPMI-8226 leukemia): 0.898 µM
GI50 (RXF 393 renal): 0.169 µM
TGI (RXF 393 renal): 0.548 µM
GI50 (SF-268 CNS): 0.126 µM
TGI (SF-268 CNS): 0.85 µM
GI50 (SF-295 CNS): 0.457 µM
TGI (SF-295 CNS): 1.72 µM
GI50 (SF-539 CNS): 0.0239 µM
TGI (SF-539 CNS): 0.125 µM
GI50 (SK-MEL-2 melanoma): 0.079 µM
TGI (SK-MEL-2 melanoma): 0.178 µM
GI50 (SK-MEL-28 melanoma): 0.245 µM
TGI (SK-MEL-28 melanoma): 1 µM
GI50 (SK-MEL-5 melanoma): 0.617 µM
TGI (SK-MEL-5 melanoma): 1.27 µM
GI50 (SK-OV-3 ovarian): 0.308 µM
TGI (SK-OV-3 ovarian): 1.59 µM
GI50 (SN12C renal): 0.0907 µM
TGI (SN12C renal): 1.2 µM
GI50 (SNB-19 CNS): 0.304 µM
TGI (SNB-19 CNS): 2.92 µM
GI50 (SNB-75 CNS): 0.0263 µM
TGI (SNB-75 CNS): 0.137 µM
GI50 (SR leukemia): 0.0322 µM
TGI (SR leukemia): 0.859 µM
GI50 (SW-620 colon): 0.0714 µM
TGI (SW-620 colon): 0.368 µM
GI50 (T-47D breast): 0.414 µM
TGI (T-47D breast): 3.26 µM
GI50 (TK-10 renal): 0.384 µM
TGI (TK-10 renal): 2.15 µM
GI50 (U251 CNS): 0.29 µM
TGI (U251 CNS): 1.02 µM
GI50 (UACC-257 melanoma): 0.318 µM
TGI (UACC-257 melanoma): 1.5 µM
GI50 (UACC-62 melanoma): 0.21 µM
TGI (UACC-62 melanoma): 0.974 µM
GI50 (UO-31 renal): 1.32 µM
TGI (UO-31 renal): 3.69 µM

Fc1ccc(-c2cc3nc(C(Cl)Cl)nc(-c4ccc(F)cc4)n3n2)cc1
GI50 (786-0 renal): 16.9 µM
TGI (786-0 renal): > 100 µM
GI50 (A498 renal): 1.65 µM
TGI (A498 renal): 3.44 µM
GI50 (ACHN renal): 0.676 µM
TGI (ACHN renal): 4.16 µM
GI50 (BT-549 breast): 2.43 µM
TGI (BT-549 breast): 42.8 µM
GI50 (CAKI-1 renal): 1.89 µM
TGI (CAKI-1 renal): 6.74 µM
GI50 (CCRF-CEM leukemia): 4.21 µM
TGI (CCRF-CEM leukemia): > 100 µM
GI50 (COLO 205 colon): 1.15 µM
TGI (COLO 205 colon): 2.52 µM
GI50 (DU-145 prostate): 0.443 µM
TGI (DU-145 prostate): 2.97 µM
GI50 (EKVX NSCLC): 1.68 µM
TGI (EKVX NSCLC): 4.37 µM
GI50 (HCC-2998 colon): 1.01 µM
TGI (HCC-2998 colon): 2.35 µM
GI50 (HCT-116 colon): 0.637 µM
TGI (HCT-116 colon): 6.3 µM
GI50 (HCT-15 colon): 1.11 µM
TGI (HCT-15 colon): 6.16 µM
GI50 (HL-60(TB) leukemia): 0.69 µM
GI50 (HOP-62 NSCLC): 1.5 µM
TGI (HOP-62 NSCLC): 4.26 µM
GI50 (HOP-92 NSCLC): 2.6 µM
TGI (HOP-92 NSCLC): 9.69 µM
GI50 (HS 578T breast): 4.14 µM
TGI (HS 578T breast): > 100 µM
GI50 (HT29 colon): 0.746 µM
TGI (HT29 colon): 3.85 µM
GI50 (IGROV1 ovarian): 3.99 µM
TGI (IGROV1 ovarian): > 100 µM
GI50 (K-562 leukemia): 2.3 µM
TGI (K-562 leukemia): > 100 µM
GI50 (KM12 colon): 1.73 µM
TGI (KM12 colon): 5.22 µM
GI50 (MCF7 breast): 1.21 µM
TGI (MCF7 breast): > 100 µM
GI50 (MOLT-4 leukemia): 1.8 µM
TGI (MOLT-4 leukemia): 9.61 µM
GI50 (NCI-H226 lung): 6.14 µM
TGI (NCI-H226 lung): > 100 µM
GI50 (NCI-H460 lung): 0.591 µM
TGI (NCI-H460 lung): 3.17 µM
GI50 (NCI/ADR-RES ovarian): 1.26 µM
TGI (NCI/ADR-RES ovarian): 5.84 µM
GI50 (OVCAR-3 ovarian): 1.54 µM
TGI (OVCAR-3 ovarian): 3.51 µM
GI50 (OVCAR-4 ovarian): 1.82 µM
TGI (OVCAR-4 ovarian): 5.75 µM
GI50 (OVCAR-5 ovarian): 2.27 µM
TGI (OVCAR-5 ovarian): 7.29 µM
GI50 (RPMI-8226 leukemia): 2.66 µM
TGI (RPMI-8226 leukemia): > 100 µM
GI50 (RXF 393 renal): 1.1 µM
TGI (RXF 393 renal): 2.43 µM
GI50 (SF-268 CNS): 2.48 µM
TGI (SF-268 CNS): > 100 µM
GI50 (SF-295 CNS): 2.17 µM
TGI (SF-295 CNS): 5.78 µM
GI50 (SF-539 CNS): 3.56 µM
TGI (SF-539 CNS): > 100 µM
GI50 (SK-MEL-2 melanoma): > 100 µM
TGI (SK-MEL-2 melanoma): > 100 µM
GI50 (SK-MEL-5 melanoma): > 100 µM
TGI (SK-MEL-5 melanoma): > 100 µM
GI50 (SK-OV-3 ovarian): 2.36 µM
TGI (SK-OV-3 ovarian): 6.34 µM
GI50 (SNB-19 CNS): 1.65 µM
TGI (SNB-19 CNS): 6.88 µM
GI50 (SNB-75 CNS): 64.9 µM
TGI (SNB-75 CNS): > 100 µM
GI50 (SR leukemia): 1.4 µM
TGI (SR leukemia): > 100 µM
GI50 (SW-620 colon): 1.11 µM
TGI (SW-620 colon): 6.85 µM
GI50 (T-47D breast): 2.62 µM
TGI (T-47D breast): > 100 µM
GI50 (U251 CNS): 1.22 µM
TGI (U251 CNS): 5.27 µM
GI50 (UACC-257 melanoma): 2.26 µM
TGI (UACC-257 melanoma): 4.91 µM
GI50 (UACC-62 melanoma): 3.21 µM
TGI (UACC-62 melanoma): > 100 µM
GI50 (UO-31 renal): 3.1 µM
TGI (UO-31 renal): > 100 µM
